Source: patent US10689377B2 (Mirati Therapeutics, Inc., priority 2017, dated 2020)

Target: KRas G12C (Homo sapiens, UniProt P01116, G12C)
Assay: Cellular inhibition of KRas G12C measured by Phospho-ERK in NCI-H358 cells
Type: cell-based
Details: pERK(Thr202/Tyr204) normalized with GAPDH, NCI-H358 cells, 3 hours; read-out: IC50
Method in brief: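 Ratio of phospho-ERK(Thr202/Tyr204) to GAPDH, read by near-infrared secondary antibodies on fixed, permeabilised NCI-H358 cells, expressed relative to DMSO control. Compound exposure was 3 h at 0.5% DMSO. IC50 values come from 4-parameter curve fits.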

KRas G12C, sequence (P01116 1-188 isoform P01116-2 G12C): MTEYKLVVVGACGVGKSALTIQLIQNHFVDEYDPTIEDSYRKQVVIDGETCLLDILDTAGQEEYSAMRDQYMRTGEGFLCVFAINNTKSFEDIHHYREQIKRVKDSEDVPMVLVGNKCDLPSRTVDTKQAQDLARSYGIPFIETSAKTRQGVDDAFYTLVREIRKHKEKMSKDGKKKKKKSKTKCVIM

Row | Compound | IC50
1 | C=CC(=O)N1CCN(c2nc(OC[C@H]3CCCCN3C)nc3c2CCN(c2cc(O)cc4ccccc24)C3)CC1 [Example 195, (R)-1-(4-(7-(3-hydroxynaphthalen-1-yl)-2-((1-methylpiperidin-2-yl)methoxy)-5,6,7,8-tetrahydropyrido[3,4-d]pyrimidin-4-yl)piperazin-1-yl)prop-2-en-1-one] | > 1000 nM
2 | C=CC(=O)N1CCN(c2nc(OC[C@@H]3CCCN3C)nc3c2CCN(c2cccc4ccccc24)C3)C[C@H]1C [Example 201, 1-((R)-2-methyl-4-(2-(((S)-1-methylpyrrolidin-2-yl)methoxy)-7-(naphthalen-1-yl)-5,6,7,8-tetrahydropyrido[3,4-d]pyrimidin-4-yl)piperazin-1-yl)prop-2-en-1-one] | > 1000 nM
3 | C=CC(=O)N1CCN(c2nc(OC[C@@H]3CCCN3C)nc3c2CCN(c2cc(O)cc4ccccc24)C3)[C@@H](C)C1 [Example 202, 1-((S)-4-(7-(3-hydroxynaphthalen-1-yl)-2-(((S)-1-methylpyrrolidin-2-yl)methoxy)-5,6,7,8-tetrahydropyrido[3,4-d]pyrimidin-4-yl)-3-methylpiperazin-1-yl)prop-2-en-1-one] | 0.1 to 1000 nM
4 | C=CC(=O)N1CCN(c2nc(OC[C@H]3CCCN3C)nc3c2CCN(c2cc(O)cc4ccccc24)C3)[C@@H](C)C1 [Example 203, 1-((S)-4-(7-(3-hydroxynaphthalen-1-yl)-2-(((R)-1-methylpyrrolidin-2-yl)methoxy)-5,6,7,8-tetrahydropyrido[3,4-d]pyrimidin-4-yl)-3-methylpiperazin-1-yl)prop-2-en-1-one] | 0.1 to 1000 nM
5 | C=CC(=O)N1CCN(c2nc(NC3CCN(C4CC4)CC3)nc3c2CCN(c2cc(O)cc4ccccc24)C3)CC1 [Example 204, 1-(4-(2-((1-cyclopropylpiperidin-4-yl)amino)-7-(3-hydroxynaphthalen-1-yl)-5,6,7,8-tetrahydropyrido[3,4-d]pyrimidin-4-yl)piperazin-1-yl)prop-2-en-1-one] | > 1000 nM
6 | C=CC(=O)N1CCN(c2nc(OCCCN3CCOCC3)nc3c2CCN(c2c(C)ccc4[nH]ccc24)C3)CC1 [Example 209, 1-(4-(7-(5-methyl-1H-indol-4-yl)-2-(3-morpholinopropoxy)-5,6,7,8-tetrahydropyrido[3,4-d]pyrimidin-4-yl)piperazin-1-yl)prop-2-en-1-one] | > 1000 nM
7 | C=CC(=O)N1CCN(c2nc(OC[C@@H]3CCCN3C)nc3c2CCN(c2cnccc2C(F)(F)F)C3)CC1CC#N (stereo partly drawn) [Example 212, 2-(1-acryloyl-4-(2-(((S)-1-methylpyrrolidin-2-yl)methoxy)-7-(4-(trifluoromethyl)pyridin-3-yl)-5,6,7,8-tetrahydropyrido[3,4-d]pyrimidin-4-yl)piperazin-2-yl)acetonitrile] | 0.1 to 1000 nM
8 | C=CC(=O)N1CCN(c2nc(OCCCN3CCOCC3)nc3c2CCN(c2cc(O)cc(C)c2C)C3)CC1 [Example 213, 1-(4-(7-(5-hydroxy-2,3-dimethylphenyl)-2-(3-morpholinopropoxy)-5,6,7,8-tetrahydropyrido[3,4-d]pyrimidin-4-yl)piperazin-1-yl)prop-2-en-1-one] | > 1000 nM
9 | C=CC(=O)N1CCN(c2nc(OCCCN3CCOCC3)nc3c2CCN(c2cc(O)ccc2SC(F)(F)F)C3)CC1 [Example 214, 1-(4-(7-(5-hydroxy-2-((trifluoromethyl)thio)phenyl)-2-(3-morpholinopropoxy)-5,6,7,8-tetrahydropyrido[3,4-d]pyrimidin-4-yl)piperazin-1-yl)prop-2-en-1-one] | > 1000 nM
10 | C=CC(=O)N1CCN(c2nc(OC[C@@H]3C[C@@H](O)CN3C)nc3c2CCN(c2cccc4ccccc24)C3)CC1CC#N (stereo partly drawn) [Example 218, 2-(1-acryloyl-4-(2-(((2S,4R)-4-hydroxy-1-methylpyrrolidin-2-yl)methoxy)-7-(naphthalen-1-yl)-5,6,7,8-tetrahydropyrido[3,4-d]pyrimidin-4-yl)piperazin-2-yl)acetonitrile] | 0.1 to 1000 nM
11 | C=CC(=O)N1CCN(c2nc(OCC3CN(C)CCN3C)nc3c2CCN(c2cc(O)cc4ccccc24)C3)CC1 (stereo not drawn) [Example 219, 1-(4-(2-((1,4-dimethylpiperazin-2-yl)methoxy)-7-(3-hydroxynaphthalen-1-yl)-5,6,7,8-tetrahydropyrido[3,4-d]pyrimidin-4-yl)piperazin-1-yl)prop-2-en-1-one] | > 1000 nM
12 | C=CC(=O)N1CCN(c2nc(OC[C@@H]3C[C@H](OC)CN3C)nc3c2CCN(c2cccc4ccccc24)C3)CC1CC#N (stereo partly drawn) [Example 222, 2-(1-acryloyl-4-(2-(((2S,4S)-4-methoxy-1-methylpyrrolidin-2-yl)methoxy)-7-(naphthalen-1-yl)-5,6,7,8-tetrahydropyrido[3,4-d]pyrimidin-4-yl)piperazin-2-yl)acetonitrile] | 0.1 to 1000 nM
13 | C=CC(=O)N1CCN(c2nc(OC[C@@H]3CCCN3C)nc3c2CCN(c2cccc(C)c2C)C3)CC1CC#N (stereo partly drawn) [Example 228, 2-(1-acryloyl-4-(7-(2,3-dimethylphenyl)-2-(((S)-1-methylpyrrolidin-2-yl)methoxy)-5,6,7,8-tetrahydropyrido[3,4-d]pyrimidin-4-yl)piperazin-2-yl)acetonitrile] | 0.1 to 1000 nM
14 | C=CC(=O)N1CCN(c2nc(OC[C@@H]3CCCN3C)nc3c2CCN(c2ccccc2Cl)C3)CC1CC#N (stereo partly drawn) [Example 229] | 0.1 to 1000 nM

More lines, now with the values ahead:

Row | IC50 | Compound
15 | 0.1 to 1000 nM | C=CC(=O)N1CCN(c2nc(OC[C@@H]3CCCCN3C)nc3c2CCN(c2cc(O)cc4ccccc24)C3)CC1 [Example 196, (S)-1-(4-(7-(3-hydroxynaphthalen-1-yl)-2-((1-methylpiperidin-2-yl)methoxy)-5,6,7,8-tetrahydropyrido[3,4-d]pyrimidin-4-yl)piperazin-1-yl)prop-2-en-1-one]
16 | 0.1 to 1000 nM | C=CC(=O)N1CCN(c2nc(OC[C@@H]3CCCN3CC)nc3c2CCN(c2cc(O)cc4ccccc24)C3)CC1 [Example 197, (S)-1-(4-(2-((1-ethylpyrrolidin-2-yl)methoxy)-7-(3-hydroxynaphthalen-1-yl)-5,6,7,8-tetrahydropyrido[3,4-d]pyrimidin-4-yl)piperazin-1-yl)prop-2-en-1-one]
17 | > 1000 nM | C/C=C/C(=O)N1CCN(c2nc(OC[C@@H]3CCCN3C)nc3c2CCN(c2cc(O)cc4ccccc24)C3)CC1 [Example 198, (S,E)-1-(4-(7-(3-hydroxynaphthalen-1-yl)-2-((1-methylpyrrolidin-2-yl)methoxy)-5,6,7,8-tetrahydropyrido[3,4-d]pyrimidin-4-yl)piperazin-1-yl)but-2-en-1-one]
18 | > 1000 nM | CN(C)C/C=C/C(=O)N1CCN(c2nc(OC[C@@H]3CCCN3C)nc3c2CCN(c2cc(O)cc4ccccc24)C3)CC1 [Example 199, (S,E)-4-(dimethylamino)-1-(4-(7-(3-hydroxynaphthalen-1-yl)-2-((1-methylpyrrolidin-2-yl)methoxy)-5,6,7,8-tetrahydropyrido[3,4-d]pyrimidin-4-yl)piperazin-1-yl)but-2-en-1-one]
19 | > 1000 nM | C=CC(=O)N1CCN(c2nc(OC[C@@H]3CCCN3C)nc3c2CCN(c2cccc4ccccc24)C3)CC1 [Example 200, (S)-1-(4-(2-((1-methylpyrrolidin-2-yl)methoxy)-7-(naphthalen-1-yl)-5,6,7,8-tetrahydropyrido[3,4-d]pyrimidin-4-yl)piperazin-1-yl)prop-2-en-1-one]
20 | 0.1 to 1000 nM | C=CC(=O)N1CCN(c2nc(OC[C@@H]3CCCN3C)nc3c2CCN(c2ccccc2OC(F)(F)F)C3)CC1CC#N (stereo partly drawn) [Example 211, 2-(1-acryloyl-4-(2-(((S)-1-methylpyrrolidin-2-yl)methoxy)-7-(2-(trifluoromethoxy)phenyl)-5,6,7,8-tetrahydropyrido[3,4-d]pyrimidin-4-yl)piperazin-2-yl)acetonitrile]
21 | > 1000 nM | C=CC(=O)N1CCN(c2nc(OC(CO)CN3CCOCC3)nc3c2CCN(c2cc(O)cc4ccccc24)C3)CC1 (stereo not drawn) [Example 217, 1-(4-(2-((1-hydroxy-3-morpholinopropan-2-yl)oxy)-7-(3-hydroxynaphthalen-1-yl)-5,6,7,8-tetrahydropyrido[3,4-d]pyrimidin-4-yl)piperazin-1-yl)prop-2-en-1-one]
22 | 0.1 to 1000 nM | C=CC(=O)N1CCN(c2nc(OC[C@@H]3C[C@H](F)CN3C)nc3c2CCN(c2cccc4ccccc24)C3)CC1CC#N (stereo partly drawn) [Example 221, 2-(1-acryloyl-4-(2-(((2S,4S)-4-fluoro-1-methylpyrrolidin-2-yl)methoxy)-7-(naphthalen-1-yl)-5,6,7,8-tetrahydropyrido[3,4-d]pyrimidin-4-yl)piperazin-2-yl)acetonitrile]
23 | 0.1 to 1000 nM | C=CC(=O)N1CCN(c2nc(OC[C@@H]3CN(C)CCN3)nc3c2CCN(c2cccc4ccccc24)C3)CC1CC#N (stereo partly drawn) [Example 223, 2-(1-acryloyl-4-(2-(((S)-4-methylpiperazin-2-yl)methoxy)-7-(naphthalen-1-yl)-5,6,7,8-tetrahydropyrido[3,4-d]pyrimidin-4-yl)piperazin-2-yl)acetonitrile]
24 | 0.1 to 1000 nM | C=CC(=O)N1CCN(c2nc(OC[C@H]3CN(C)CCN3)nc3c2CCN(c2cccc4ccccc24)C3)CC1CC#N (stereo partly drawn) [Example 224, 2-(1-acryloyl-4-(2-(((R)-4-methylpiperazin-2-yl)methoxy)-7-(naphthalen-1-yl)-5,6,7,8-tetrahydropyrido[3,4-d]pyrimidin-4-yl)piperazin-2-yl)acetonitrile]
25 | 0.1 to 1000 nM | C=CC(=O)N1CCN(c2nc(OC[C@@H]3CCCN3C)nc3c2CCN(c2cc(F)ccc2OC(F)(F)F)C3)CC1CC#N (stereo partly drawn) [Example 225]
26 | 0.1 to 1000 nM | C=CC(=O)N1CCN(c2nc(OC[C@@H]3CCCN3C)nc3c2CCN(c2cccnc2C(F)(F)F)C3)CC1CC#N (stereo partly drawn) [Example 226, 2-(1-acryloyl-4-(2-(((S)-1-methylpyrrolidin-2-yl)methoxy)-7-(2-(trifluoromethyl)pyridin-3-yl)-5,6,7,8-tetrahydropyrido[3,4-d]pyrimidin-4-yl)piperazin-2-yl)acetonitrile]
27 | 0.1 to 1000 nM | C=CC(=O)N1CCN(c2nc(OC[C@@H]3CCCN3C)nc3c2CCN(c2ccccc2F)C3)CC1CC#N (stereo partly drawn) [Example 227, 2-(1-acryloyl-4-(7-(2-fluorophenyl)-2-(((S)-1-methylpyrrolidin-2-yl)methoxy)-5,6,7,8-tetrahydropyrido[3,4-d]pyrimidin-4-yl)piperazin-2-yl)acetonitrile]
